From paper PMC8464850, “Sulfonium Ligands of the α7 nAChR” (Molecules, 2021)

What was measured:
Format in all cases: cell-based
α4(3)β2(2) = biological target: T1, α4(3)β2(2) (Homo sapiens, UniProt P17787+P43681); test: Activation of heteromeric nAChR by S1: α4(3)β2(2)
T1 construct: expressed in transfected cells; host or cells: Xenopus laevis oocytes (injected RNA)
Text: (§1) Concatamers were used in order to obtain heteromeric receptors with known subunit composition. The β2-6-α4 concatamer was co-expressed with monomeric α4, β2, or α5 to obtain receptors with the composition α4(3)β2(2), α4(2)β2(3), or α4(2)β2(2)α5, respectively. A concatamer of five linked subunits was used to obtain the β3α4 β2α6β2 receptors. The α3β4 receptors were formed from the co-expression of α3 and β4 subunit monomers at equal ratios. Note that the data were initially measured relative to internal ACh control responses for each oocyte (Methods). Responses were subsequently adjusted for the relative values of the ACh controls and the ACh maximum responses for each of the various subtypes, determined in previous experiments.
(§2) Figure 6 Activation of heteromeric neuronal nAChR by S1. […] Data are the average peak currents (n = 6–8 oocytes ± SEM), measured relative to initial ACh control responses for each oocyte (concentrations listed in Methods). Responses were subsequently adjusted for the relative values of the ACh controls and the ACh maximum responses for each of the various subtypes, determined in previous experiments. […]
(§3) Solutions were applied from 96-well plates via disposable tips. […] The responses were calculated as both peak current amplitudes and net charge, as previously described. […] Multi-cell averages were calculated for comparisons of complex responses. […]

α4(2)β2(3) = biological target: T2, α4(2)β2(3) (Homo sapiens, UniProt P17787+P43681); test: Activation of heteromeric nAChR by S1: α4(2)β2(3)
T2 construct: expressed in transfected cells; host or cells: Xenopus laevis oocytes (injected RNA)
Text: as §1, §2, §3

[1] = biological target: T3, muscle-type (α1β1εδ) receptors (Mus musculus, UniProt P02716+P04756+P20782); test: Activation of muscle-type receptors; details: not shown
T3 construct: expressed in transfected cells; host or cells: Xenopus laevis oocytes (injected RNA)
Text: (§4) The human nAChR clones were obtained from Jon Lindstrom (University of Pennsylvania, Philadelphia, PA, USA). Mouse muscle subunit clones were obtained from Jim Boulter (Salk Institute, La Jolla, CA, USA) and Paul Gardner (Dartmouth, Hanover, NH, USA). The human resistance-to-cholinesterase 3 (RIC3) clone was obtained from Millet Treinin (Hebrew University, Jerusalem, Israel) and co-injected with α7 to improve the level and speed of α7 receptor expression without affecting the pharmacological properties of the receptors. Subsequent to linearization and purification of the plasmid DNAs, RNAs were prepared using the mMessage mMachine in vitro RNA transcription kit (Ambion, Austin, TX, USA).
Experiments were conducted using OpusXpress 6000A (Molecular Devices, Union City, CA, USA). […]
Solutions were applied from 96-well plates via disposable tips. […] The responses were calculated as both peak current amplitudes and net charge, as previously described. Data were collected at 50 Hz, filtered at 20 Hz for α7 receptors or filtered at 5 Hz for heteromeric nAChR, and analyzed by Clampfit (Molecular Devices, San Jose, CA, USA) and Excel (Microsoft, Redmond, WA, USA). Data were expressed as means ± SEM from at least four oocytes for each experiment and plotted with Kaleidagraph 4.5.2 (Abelbeck Software, Reading, PA, USA). Multi-cell averages were calculated for comparisons of complex responses. […]

α4β2α5 = biological target: T4, α4β2α5 (Homo sapiens, UniProt P17787+P43681); test: Activation of heteromeric nAChR by S1: α4(2)β2(2)α5
T4 construct: expressed in transfected cells; host or cells: Xenopus laevis oocytes (injected RNA)
Text: as §1, §2, §3

human α7 receptors = biological target: T5, human α7 receptors (Homo sapiens, UniProt P36544); test: Activation of human α7 receptors expressed in Xenopus oocytes, compounds applied alone (two-electrode voltage clamp, net charge); details: for ability to activate α7 when applied alone: 100 µM
T5 construct: expressed in transfected cells; host or cells: Xenopus laevis oocytes (injected RNA)
Protocol: The sulfonium compounds (Figure 1) were evaluated for their ability to activate human α7 receptors expressed in Xenopus oocytes (Figure 2A). Responses were measured as net charge. […] The average net-charge response to 100 µM S1 was 47 ± 6% of the control responses to 60 µM ACh from the same cells.
Figure 2 Responses of α7 nAChR to sulfonium compounds. (A) Net-charge responses to the applications of the test compounds applied at 100 µM. Net charge was calculated as the integrated area of inward current over a 120 s interval following the 30 s-pre-application period used to establish an initial baseline. […] (B) Averaged net-charge responses (±SEM, n = 8) to applications of S1 across a range of concentrations. Responses were measured relative to preceding 60 µM ACh control responses and then adjusted for the difference between ACh controls and ACh maximum responses. See text for curve-fit values.
as §4
Oocytes were surgically removed from mature female Xenopus laevis frogs (Nasco, Ft. Atkinson, WI, USA) as previously described. Frogs were maintained in the Animal Care Service facility of the University of Florida, and all procedures were approved by the University of Florida Institutional Animal Care and Use Committee (approval number 202002669).
Experiments were conducted using OpusXpress 6000A (Molecular Devices, Union City, CA, USA). Both the voltage and current electrodes were filled with 3 M KCl. Oocytes were voltage-clamped at −60 mV at room temperature (24 °C). The oocytes were bath-perfused with Ringer’s solution (115 mM NaCl, 2.5 mM KCl, 1.8 mM CaCl2, 10 mM HEPES, and 1 μM atropine, pH 7.2) at 2 mL/min for α7 receptors, or 4 mL/min for heteromeric nAChR. To evaluate the effects of experimental compounds, responses were compared to control ACh-evoked responses, defined as the average of two initial applications of ACh made before test applications. ACh control concentrations were 60 µM for α7 receptors; 100 µM for α4(3)β2(2) and α3β4 receptors; 30 µM for α4β2α6β2β3 and muscle-type (αβ1εδ) receptors; and 10 µM for α4(3)β2(2) and α4(2)β2(2)α5 receptors.
Solutions were applied from 96-well plates via disposable tips. Drug applications were 12 s in duration, followed by 181 s washout periods for α7 receptors, or 6 s in duration followed by 301 s washout periods for heteromeric nAChR. The responses were calculated as both peak current amplitudes and net charge, as previously described. Data were collected at 50 Hz, filtered at 20 Hz for α7 receptors or filtered at 5 Hz for heteromeric nAChR, and analyzed by Clampfit (Molecular Devices, San Jose, CA, USA) and Excel (Microsoft, Redmond, WA, USA). Data were expressed as means ± SEM from at least four oocytes for each experiment and plotted with Kaleidagraph 4.5.2 (Abelbeck Software, Reading, PA, USA). Multi-cell averages were calculated for comparisons of complex responses. Averages of the normalized data were calculated for each of the 10,322 points in each of the 206.44 s traces (acquired at 50 Hz), as well as the standard errors for those averages.

[2] = peak currents relative to ACh maximum

T5 sequence (P36544 23-502): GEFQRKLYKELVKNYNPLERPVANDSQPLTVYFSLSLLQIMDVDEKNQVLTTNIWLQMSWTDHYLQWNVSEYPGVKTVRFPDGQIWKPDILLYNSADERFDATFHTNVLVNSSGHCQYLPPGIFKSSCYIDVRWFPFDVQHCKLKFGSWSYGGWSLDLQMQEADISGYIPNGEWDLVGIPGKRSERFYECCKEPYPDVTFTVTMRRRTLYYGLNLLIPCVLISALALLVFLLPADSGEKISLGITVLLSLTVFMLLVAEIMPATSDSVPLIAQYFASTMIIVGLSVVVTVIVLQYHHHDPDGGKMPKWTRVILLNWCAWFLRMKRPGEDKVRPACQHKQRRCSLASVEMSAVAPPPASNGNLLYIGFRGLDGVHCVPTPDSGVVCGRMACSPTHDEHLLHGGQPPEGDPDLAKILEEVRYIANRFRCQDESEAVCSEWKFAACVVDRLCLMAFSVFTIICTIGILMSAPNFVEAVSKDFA
T1 sequence (P17787 26-502): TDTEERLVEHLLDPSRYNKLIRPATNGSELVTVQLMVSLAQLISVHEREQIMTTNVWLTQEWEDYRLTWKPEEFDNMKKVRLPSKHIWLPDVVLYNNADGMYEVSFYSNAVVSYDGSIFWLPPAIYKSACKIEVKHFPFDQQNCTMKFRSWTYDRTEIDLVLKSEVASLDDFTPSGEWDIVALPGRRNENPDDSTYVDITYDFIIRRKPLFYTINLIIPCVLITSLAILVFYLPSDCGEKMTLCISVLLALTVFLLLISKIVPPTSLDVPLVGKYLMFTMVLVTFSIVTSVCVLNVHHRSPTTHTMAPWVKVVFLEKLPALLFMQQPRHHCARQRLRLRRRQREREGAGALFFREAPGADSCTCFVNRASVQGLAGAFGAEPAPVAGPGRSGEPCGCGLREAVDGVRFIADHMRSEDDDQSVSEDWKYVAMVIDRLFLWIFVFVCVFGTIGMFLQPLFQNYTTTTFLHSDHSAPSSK
T1 sequence (P43681 29-627 limits assumed): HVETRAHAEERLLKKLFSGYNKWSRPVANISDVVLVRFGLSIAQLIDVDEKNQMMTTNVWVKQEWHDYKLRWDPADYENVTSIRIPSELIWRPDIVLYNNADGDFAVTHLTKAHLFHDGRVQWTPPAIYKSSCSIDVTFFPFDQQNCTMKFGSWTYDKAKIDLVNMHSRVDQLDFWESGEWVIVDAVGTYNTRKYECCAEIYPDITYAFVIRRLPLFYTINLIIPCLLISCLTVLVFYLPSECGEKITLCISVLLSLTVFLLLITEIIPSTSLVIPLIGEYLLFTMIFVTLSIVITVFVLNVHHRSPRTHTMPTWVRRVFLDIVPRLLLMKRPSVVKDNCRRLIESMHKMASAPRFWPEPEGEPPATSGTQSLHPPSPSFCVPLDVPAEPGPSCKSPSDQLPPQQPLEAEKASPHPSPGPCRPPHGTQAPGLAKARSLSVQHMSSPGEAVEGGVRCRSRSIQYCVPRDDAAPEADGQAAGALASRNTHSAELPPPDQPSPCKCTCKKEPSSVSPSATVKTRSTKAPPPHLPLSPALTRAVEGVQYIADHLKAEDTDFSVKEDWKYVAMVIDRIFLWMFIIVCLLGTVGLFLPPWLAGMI
T1 sequence (P43681 29-627 limits assumed): as above
T4 sequence (P17787 26-502): as the sequence (P17787 26-502) above
T4 sequence (P43681 29-627 limits assumed): as the sequence (P43681 29-627 limits assumed) above
T2 sequence (P17787 26-502): as the sequence (P17787 26-502) above
T2 sequence (P43681 29-627 limits assumed): as the sequence (P43681 29-627 limits assumed) above
T2 sequence (P17787 26-502): as the sequence (P17787 26-502) above
T3 sequence (P04756 21-457): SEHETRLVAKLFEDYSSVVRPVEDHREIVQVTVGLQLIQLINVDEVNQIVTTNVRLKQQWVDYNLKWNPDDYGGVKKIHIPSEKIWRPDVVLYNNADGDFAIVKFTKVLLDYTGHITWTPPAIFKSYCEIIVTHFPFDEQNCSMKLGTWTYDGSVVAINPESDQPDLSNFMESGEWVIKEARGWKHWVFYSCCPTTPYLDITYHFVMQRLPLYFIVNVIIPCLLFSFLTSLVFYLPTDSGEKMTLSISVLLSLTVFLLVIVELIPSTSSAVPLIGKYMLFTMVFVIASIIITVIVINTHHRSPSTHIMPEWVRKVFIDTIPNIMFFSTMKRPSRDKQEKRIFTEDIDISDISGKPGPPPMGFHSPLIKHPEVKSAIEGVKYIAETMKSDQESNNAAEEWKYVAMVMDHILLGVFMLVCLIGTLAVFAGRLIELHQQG
T3 sequence (P09690 24-501 partner): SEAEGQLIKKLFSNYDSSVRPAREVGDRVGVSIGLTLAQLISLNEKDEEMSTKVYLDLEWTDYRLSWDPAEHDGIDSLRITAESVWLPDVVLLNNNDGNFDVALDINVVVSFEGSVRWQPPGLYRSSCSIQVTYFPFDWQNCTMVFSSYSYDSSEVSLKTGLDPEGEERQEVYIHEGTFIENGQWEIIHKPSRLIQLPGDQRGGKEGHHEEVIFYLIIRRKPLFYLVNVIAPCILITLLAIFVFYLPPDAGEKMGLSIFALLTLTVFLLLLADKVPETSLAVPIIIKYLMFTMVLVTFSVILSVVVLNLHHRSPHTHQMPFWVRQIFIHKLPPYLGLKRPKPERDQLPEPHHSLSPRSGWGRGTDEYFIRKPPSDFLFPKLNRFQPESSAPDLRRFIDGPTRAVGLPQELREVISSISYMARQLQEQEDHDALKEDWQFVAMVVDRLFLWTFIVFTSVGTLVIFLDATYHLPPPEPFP
T3 sequence (P20782 21-493): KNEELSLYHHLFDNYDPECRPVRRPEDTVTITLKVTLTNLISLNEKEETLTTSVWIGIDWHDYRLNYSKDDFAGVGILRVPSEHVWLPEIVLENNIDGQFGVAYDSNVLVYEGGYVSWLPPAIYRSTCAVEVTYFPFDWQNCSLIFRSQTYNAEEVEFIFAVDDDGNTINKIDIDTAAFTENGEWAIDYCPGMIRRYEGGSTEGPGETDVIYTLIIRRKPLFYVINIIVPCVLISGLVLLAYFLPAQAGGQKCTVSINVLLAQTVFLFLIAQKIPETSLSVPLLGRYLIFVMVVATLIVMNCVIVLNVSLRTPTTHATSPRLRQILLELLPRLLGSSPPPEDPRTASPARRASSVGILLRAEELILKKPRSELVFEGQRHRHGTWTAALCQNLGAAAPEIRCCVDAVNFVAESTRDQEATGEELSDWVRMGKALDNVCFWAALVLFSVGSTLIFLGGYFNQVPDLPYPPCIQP
T3 sequence (P02716 25-520): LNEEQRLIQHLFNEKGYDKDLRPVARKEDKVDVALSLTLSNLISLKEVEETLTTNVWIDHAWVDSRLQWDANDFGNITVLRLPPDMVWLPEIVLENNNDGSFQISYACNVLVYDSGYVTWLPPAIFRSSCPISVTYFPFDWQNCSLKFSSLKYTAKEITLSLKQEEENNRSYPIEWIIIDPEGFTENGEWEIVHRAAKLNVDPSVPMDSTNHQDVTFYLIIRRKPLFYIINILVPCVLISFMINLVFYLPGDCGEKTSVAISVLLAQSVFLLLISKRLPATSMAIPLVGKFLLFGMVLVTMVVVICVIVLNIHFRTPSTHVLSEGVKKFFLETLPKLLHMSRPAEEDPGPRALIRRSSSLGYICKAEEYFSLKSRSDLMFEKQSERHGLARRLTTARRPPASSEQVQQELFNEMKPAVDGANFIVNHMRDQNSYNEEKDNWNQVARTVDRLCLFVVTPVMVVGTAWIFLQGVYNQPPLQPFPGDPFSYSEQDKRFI

C[S+](C)C.[I-] [Compound S1, trimethylsulfonium iodide]
IMax (S1 Activation) (α4(3)β2(2); [2]): 1.2 ± 0.2 | EC50 (α4(3)β2(2); peak currents, unit inferred): 246 ± 104 µM | IMax (S1 Activation) (α4(2)β2(3); [2]): 0.89 ± 0.44 | EC50 (α4(2)β2(3); peak currents, unit inferred): 1060 ± 1240 µM | activation of muscle-type receptors [1]: not an effective activator | IMax (S1 Activation) (α4β2α5; [2]): 0.50 ± 0.03 | EC50 (α4β2α5; peak currents, unit inferred): 114 ± 25 µM | average net-charge response, % of the control responses to 60 µM ACh (human α7 receptors; 100 µM compound applied alone, same cells): 47 ± 6% | ability to activate α7 when applied alone (human α7 receptors; net charge): activated receptors | ability to activate α7 when applied alone (human α7 receptors; net charge, listed as trimethylsulfonium): partial agonist | Imax (human α7 receptors; net charge, n = 8, normalized to ACh maximum, Hill fit): 84 ± 0.3 % ACh Imax | EC50 (human α7 receptors; α7, Hill fit, Table 2, unit printed in text b9 only, read-out: EC50 (S1 Activation)): 98 ± 0.5 µM | IMax (S1 Activation) (human α7 receptors; α7, relative to ACh maximum, Hill fit, Table 2): 0.84 ± 0.01
